Read-outs that look alike come from different tables or passages of the source.
How the values were obtained:
[1] = target: Mammalian DNA-PK (Homo sapiens, UniProt P78527); assay: DNA-PK inhibition assay (ELISA of p53 Ser15 phosphorylation of GST-p53N66); assay type: biochemical, Mammalian (isolated from HeLa cell nuclear extract)
Description: In order to assess the inhibitory action of the compounds against DNA-PK in vitro, the following assay was used to determine IC50 values.
To the assay mix, varying concentrations of inhibitor (in DMSO at a final concentration of 1%) were added. After 10 minutes of incubation, ATP was added to give a final concentration of […] along with a 30 mer double stranded DNA oligonucleotide (final concentraion of 0.5 ng/ml) to initiate the reaction. After 1 hour with shaking, 150 μl of phosphate buffered saline (PBS) was added to the reaction and 5 μl then transferred to a 96 well opaque white plate containing 45 μl of PBS per well where the GSTp53N66 substrate was allowed to bind to the wells for 1 hour. To detect the phosphorylation event on the serine 15 residue of p53 elicited by DNA-PK a p53 phosphoserine-15 antibody (Cell Signaling Technology) was used in a basic ELISA procedure. An anti-rabbit HRP conjugated secondary antibody (Pierce) was then employed in the ELISA before the addition of chemiluminescence reagent. (NEN Renaissance) to detect the signal as measured by chemiluminescent counting via a TopCount NXT (Packard).
The enzyme activity for each compound is then calculated using the following equation: […]
The results are discussed below as IC50 values (the concentration at which 50% of the enzyme activity is inhibited). These are determined over a range of different concentrations, normally from 10 μM down to 0.001 μM. Such IC50 values are used as comparative values to identify increased compound potencies.

[2] = tested on: cells; conditions: Rosenzweig et al. 1999; cited from earlier work
[3] = target: PI 3-kinase; conditions: stated as the same as for DNA-PK; cited from earlier work
[4] = tested on: HeLa cells; assay: Survival Enhancement Ratio (clonogenic survival after 2 Gray irradiation); assay type: cell-based, human; conditions: example compound of WO 03/024949; concentration not given
Description: The Survival Enhancement Ratio (SER) is a ratio of the enhancement of cell kill elicited by the DNA-PK inhibitor after 2 Grays of irradiation compared to […]. DNA-PK inhibitors were used at a concentration of 25, 50, 100 and/or 500 nM. Radiation was delivered by a Faxitron 43855D machine at a dose rate of 1 Gy pre minute The SER at 2 Gray irradiation was calculated from the formula:
The degree of cell killing was monitored by a standard clonogenic survival assay. Briefly, tissue culture treated 6-well plates were seeded with HeLa cells at an appropriate concentration to give 100-200 colonies per well and returned to the incubator in order to allow the cells to attach. Four hours later, compound or vehicle control was added to the cells. The cells were then incubated for 1 hour in the presence of inhibitor prior to irradiation at 2 Gray using a Faxitron 43855D cabinet X-ray machine. The cells were then incubated for a further 16 hours before the media was replaced with fresh media in the absence of DNA-PK inhibitor. After 8 days, colonies formed were fixed and stained with Giemsa (Sigma, Poole, UK) and scored using an automated colony counter (Oxford Optronics Ltd, Oxford, UK). The data was calculated as described above.

[5] = DNA-PK from HeLa nuclear extract, mean value, read-out: mean IC50

| IC50 [1, 5] [nM] | Structure (SMILES) | also measured |
| --- | --- | --- |
| 125 | O=c1cc(N2CCOCC2)oc2c(-c3ccc(CNC4CCS(=O)(=O)C4)c4c3sc3ccccc34)cccc12 (stereo not shown) [4bd] |  |
| 91.7 | O=c1cc(N2CCOCC2)oc2c(-c3ccc(CNCc4cc[nH]n4)c4c3sc3ccccc34)cccc12 [4be] |  |
| 717 | COC[C@H]1CCCN1Cc1ccc(-c2cccc3c(=O)cc(N4CCOCC4)oc23)c2sc3ccccc3c12 [4bf] |  |
| 299 | Cc1cc(NCc2ccc(-c3cccc4c(=O)cc(N5CCOCC5)oc34)c3sc4ccccc4c23)on1 [4bg] |  |
| 222 | O=c1cc(N2CCOCC2)oc2c(-c3ccc(CNCc4ccco4)c4c3sc3ccccc34)cccc12 [4bh] |  |
| 92.9 | Cc1n[nH]c(NCc2ccc(-c3cccc4c(=O)cc(N5CCOCC5)oc34)c3sc4ccccc4c23)n1 [4bi] |  |
| 32 | CC(CN(C)C)NCc1ccc(-c2cccc3c(=O)cc(N4CCOCC4)oc23)c2sc3ccccc3c12 (stereo not shown) [4bk] |  |
| 46.2 | Cn1nccc1CNCc1ccc(-c2cccc3c(=O)cc(N4CCOCC4)oc23)c2sc3ccccc3c12 [4bl] |  |
| 115 | N[C@@H]1CCCC[C@@H]1NCc1ccc(-c2cccc3c(=O)cc(N4CCOCC4)oc23)c2sc3ccccc3c12 [4bn] |  |
| 2070 | O=c1cc(N2CCOCC2)oc2c(-c3ccc(CN4CCCCO4)c4c3sc3ccccc34)cccc12 [4bo] |  |
| 170 | O=c1cc(N2CCOCC2)oc2c(-c3ccc(CN4CC[C@@H](F)C4)c4c3sc3ccccc34)cccc12 [4bp] |  |
| 433 | O=c1cc(N2CCOCC2)oc2c(-c3ccc(CN4CCSC4)c4c3sc3ccccc34)cccc12 [4bq] |  |
| 174 | O=c1cc(N2CCOCC2)oc2c(-c3ccc(CN4CCC[C@@H]4CO)c4c3sc3ccccc34)cccc12 [4bt] |  |
| 1.32 | CN(C)[C@H]1CCN(Cc2ccc(-c3cccc4c(=O)cc(N5CCOCC5)oc34)c3sc4ccccc4c23)C1 [4bu] |  |
| 2.05 | CN(C)[C@@H]1CCN(Cc2ccc(-c3cccc4c(=O)cc(N5CCOCC5)oc34)c3sc4ccccc4c23)C1 [4bv] |  |
| 438 | O=c1cc(N2CCOCC2)oc2c(-c3ccc(CN4CC[C@H](F)C4)c4c3sc3ccccc34)cccc12 [4bw] |  |
| 98.6 | O=c1cc(N2CCOCC2)oc2c(-c3ccc(CN4CCC[C@H]4CO)c4c3sc3ccccc34)cccc12 [4by] |  |
| 257 | O=c1cc(N2CCOCC2)oc2c(-c3ccc(CN4CCSCC4)c4c3sc3ccccc34)cccc12 [4bz] |  |
| 22.6 | O=c1cc(N2CCOCC2)oc2c(-c3ccc(CNCCO)c4c3sc3ccccc34)cccc12 [4c] |  |
| 1010 | O=c1cc(N2CCOCC2)oc2c(-c3ccc(CN4CCC(F)(F)C4)c4c3sc3ccccc34)cccc12 [4ca] |  |

| IC50 [1, 5] [nM] | Structure (SMILES) | also measured |
| --- | --- | --- |
| 3.74 | CC1CN(Cc2ccc(-c3cccc4c(=O)cc(N5CCOCC5)oc34)c3sc4ccccc4c23)CCN1C (stereo not shown) [4cb] |  |
| 321 | CN(Cc1ccc(-c2cccc3c(=O)cc(N4CCOCC4)oc23)c2sc3ccccc3c12)Cc1ccnn1C [4cc] |  |
| 68.4 | CN(Cc1ccc(-c2cccc3c(=O)cc(N4CCOCC4)oc23)c2sc3ccccc3c12)Cc1cncn1C [4cd] |  |
| 291 | Cn1cccc1CNCc1ccc(-c2cccc3c(=O)cc(N4CCOCC4)oc23)c2sc3ccccc3c12 [4ce] |  |
| 174 | O=c1cc(N2CCOCC2)oc2c(-c3ccc(CNC4=NCCS4)c4c3sc3ccccc34)cccc12 [4cf] |  |
| 139 | O=c1cc(N2CCOCC2)oc2c(-c3ccc(CNCc4ccncc4)c4c3sc3ccccc34)cccc12 [4cg] |  |
| 98.5 | O=c1cc(N2CCOCC2)oc2c(-c3ccc(CNCc4cccnc4)c4c3sc3ccccc34)cccc12 [4ch] |  |
| 177 | O=c1cc(N2CCOCC2)oc2c(-c3ccc(CNCc4ccccn4)c4c3sc3ccccc34)cccc12 [4ci] |  |
| 193 | O=c1cc(N2CCOCC2)oc2c(-c3ccc(CNCc4nccs4)c4c3sc3ccccc34)cccc12 [4cj] |  |
| 16.1 | CN1CCCC(NCc2ccc(-c3cccc4c(=O)cc(N5CCOCC5)oc34)c3sc4ccccc4c23)C1 (stereo not shown) [4ck] |  |
| 47.2 | CN1CCC(NCc2ccc(-c3cccc4c(=O)cc(N5CCOCC5)oc34)c3sc4ccccc4c23)CC1 [4cl] |  |
| 956 | N#Cc1cccn1NCc1ccc(-c2cccc3c(=O)cc(N4CCOCC4)oc23)c2sc3ccccc3c12 [4cm] |  |
| 57.3 | CCN1CCCC1CNCc1ccc(-c2cccc3c(=O)cc(N4CCOCC4)oc23)c2sc3ccccc3c12 (stereo not shown) [4cn] |  |
| 62.5 | O=c1cc(N2CCOCC2)oc2c(-c3ccc(CNCCN4CCCCC4)c4c3sc3ccccc34)cccc12 [4co] |  |
| 94.6 | O=c1cc(N2CCOCC2)oc2c(-c3ccc(CNn4cnnc4)c4c3sc3ccccc34)cccc12 [4cp] |  |
| 36.1 | NC1CCCN(Cc2ccc(-c3cccc4c(=O)cc(N5CCOCC5)oc34)c3sc4ccccc4c23)C1 (stereo not shown) [4cq] |  |
| 6.67 | O=c1cc(N2CCOCC2)oc2c(-c3ccc(CN4CCCNCC4)c4c3sc3ccccc34)cccc12 [4cr] |  |
| 886 | O=c1cc(N2CCOCC2)oc2c(-c3ccc(CN4CCCCC4)c4c3sc3ccccc34)cccc12 [4cs] |  |
| 530 | O=c1cc(N2CCOCC2)oc2c(-c3ccc(CNCCc4ccccc4)c4c3sc3ccccc34)cccc12 [4ct] |  |
| 12.6 | CN(C)CCNCc1ccc(-c2cccc3c(=O)cc(N4CCOCC4)oc23)c2sc3ccccc3c12 [4d] |  |

| IC50 [1, 5] [nM] | Structure (SMILES) | also measured |
| --- | --- | --- |
| 883 | C=CCNCc1ccc(-c2cccc3c(=O)cc(N4CCOCC4)oc23)c2sc3ccccc3c12 [4i] |  |
| 508 | O=c1cc(N2CCOCC2)oc2c(-c3ccc(CN4CCC(O)CC4)c4c3sc3ccccc34)cccc12 [4j] |  |
| 7.14 | O=c1cc(N2CCOCC2)oc2c(-c3ccc(CN4CCNCC4)c4c3sc3ccccc34)cccc12 [4k] |  |
| 30.3 | O=c1cc(N2CCOCC2)oc2c(-c3ccc(CN4CCC(O)C4)c4c3sc3ccccc34)cccc12 (stereo not shown) [4l] |  |
| 293 | CN(C)Cc1ccc(-c2cccc3c(=O)cc(N4CCOCC4)oc23)c2sc3ccccc3c12 [4m] |  |
| 975 | COc1cccc(N2CCN(Cc3ccc(-c4cccc5c(=O)cc(N6CCOCC6)oc45)c4sc5ccccc5c34)CC2)c1 [4n] |  |
| 502 | COc1ccc(N2CCN(Cc3ccc(-c4cccc5c(=O)cc(N6CCOCC6)oc45)c4sc5ccccc5c34)CC2C)cc1 (stereo not shown) [4o] |  |
| 96 | O=c1cc(N2CCOCC2)oc2c(-c3ccc(CN4CCC(CO)CC4)c4c3sc3ccccc34)cccc12 [4p] |  |
| 83.3 | C[C@@H]1CN(Cc2ccc(-c3cccc4c(=O)cc(N5CCOCC5)oc34)c3sc4ccccc4c23)C[C@H](C)O1 [4q] |  |
| 124 | O=c1cc(N2CCOCC2)oc2c(-c3ccc(CN4CCCC(CO)C4)c4c3sc3ccccc34)cccc12 (stereo not shown) [4r] |  |
| 942 | CN(Cc1ccccc1)Cc1ccc(-c2cccc3c(=O)cc(N4CCOCC4)oc23)c2sc3ccccc3c12 [4s] |  |
| 7.92 | COCCN1CCN(Cc2ccc(-c3cccc4c(=O)cc(N5CCOCC5)oc34)c3sc4ccccc4c23)CC1 [4t] |  |
| 27.3 | CN(C)CCN(C)Cc1ccc(-c2cccc3c(=O)cc(N4CCOCC4)oc23)c2sc3ccccc3c12 [4u] |  |
| 1.31 | CN1CCN(Cc2ccc(-c3cccc4c(=O)cc(N5CCOCC5)oc34)c3sc4ccccc4c23)CC1 [4v] |  |
| 1910 | O=c1cc(N2CCOCC2)oc2c(-c3ccc(CN4CCCCCC4)c4c3sc3ccccc34)cccc12 [4x] |  |
| 1960 | CCN(CC)Cc1ccc(-c2cccc3c(=O)cc(N4CCOCC4)oc23)c2sc3ccccc3c12 [4y] |  |
| 77.9 | CC(=O)N1CCN(Cc2ccc(-c3cccc4c(=O)cc(N5CCOCC5)oc34)c3sc4ccccc4c23)CC1 [4z] |  |
|  | O=c1cc(N2CCOCC2)oc2c(-c3ccccc3)cccc12 [LY294002] | sensitisation of cells to the effects of IR [2]: weakly sensitise cells to the effects of IR; IC50 [3]: ~1000 nM |
|  | O=c1cc(N2CCOCC2)oc2c(-c3cccc4c3sc3ccccc34)cccc12 [reference compound] | SER [4]: 1.3; IC50 [1]: 10 to 12 nM |

— patent US20110130386A1, “DNA-PK INHIBITORS” (priority 2008, published 2011)
